Here are results for 14 compounds from ChEMBL document CHEMBL1201862, “PubChem BioAssay data set” (2004).

As usually defined, the EC50 is the concentration giving half of the maximal effect. Broadly, the AC50 is the midpoint of the concentration-response curve, whichever way the signal moves.

In test [1] the target is T1, Endoribonuclease toxin MazF (Escherichia coli K-12, UniProt P0AE70).
T1 sequence (P0AE70 whole entry): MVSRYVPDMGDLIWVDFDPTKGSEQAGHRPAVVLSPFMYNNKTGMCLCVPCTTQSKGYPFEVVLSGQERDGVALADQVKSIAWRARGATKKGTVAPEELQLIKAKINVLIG
The test can be described thus: MazF toxin RNase activators, dose response, biochemical, fluorescence, single-stranded RNA substrate, uHTS hits (AID 588481). The class given is functional.

Test [2] has as its target T1, Endoribonuclease toxin MazF. The test can be described thus: fluorescent RNA oligo signal without MazF, dose response, counter-screen for MazEF activator project, biochemical, fluorescence, single-stranded RNase substrate (AID 588502). The class given is functional.
The subject of the next test is Streptococcus. Description: Group A Streptococcus viability loss, dose response, counter-screen for streptokinase expression inhibitor project, luminescence, BacTiterGlo (AID 1915).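 Also: potency for reduction of bacterial viability or growth.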 The class given is functional, organism-based. Background: The purpose of a counterscreen is to sort out artefacts and off-target activity.
For test [3], the system named is Streptococcus sp. 'group A'. Description: growth inhibition of control SK(-) GAS strain, dose response, counter-screen for streptokinase expression inhibitor project, luminescence, kanamycin, BacTiterGlo, confirmation (AID 1900). Format: functional, organism-based.
The next test addresses T2, Streptokinase A (Streptococcus pyogenes serotype M1, UniProt P10520).
T2 sequence (P10520 whole entry): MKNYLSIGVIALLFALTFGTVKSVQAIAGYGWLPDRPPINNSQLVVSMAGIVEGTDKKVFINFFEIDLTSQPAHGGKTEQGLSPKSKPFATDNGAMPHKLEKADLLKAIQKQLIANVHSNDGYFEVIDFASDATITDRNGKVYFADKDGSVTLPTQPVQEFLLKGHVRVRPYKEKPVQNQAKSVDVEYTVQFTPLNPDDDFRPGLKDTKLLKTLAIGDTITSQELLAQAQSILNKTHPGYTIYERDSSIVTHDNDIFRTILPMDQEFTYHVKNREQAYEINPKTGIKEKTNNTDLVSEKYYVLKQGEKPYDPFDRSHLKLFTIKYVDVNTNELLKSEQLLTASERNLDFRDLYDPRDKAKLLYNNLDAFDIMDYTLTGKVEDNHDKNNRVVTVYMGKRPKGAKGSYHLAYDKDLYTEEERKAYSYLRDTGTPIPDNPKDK
The test can be described thus: S. pyogenes streptokinase expression inhibitors, potency, dose response, plasminogen activation absorbance, OD405 (AID 1914).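 Also: secreted streptokinase activity via plasminogen activation per viability signal from cell pellet.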 The class given is functional, Streptococcus pyogenes M1 GAS.

Test [4] is described as follows: C. albicans growth with fluconazole, confirmation, fluorescence, retest (AID 2467). Format: functional, cell-based.
A short description of test [5]: NIH-3T3 fibroblast cytotoxicity, dose response, cytotoxicity control, cell-based, fluorescence, Alamar Blue, secondary assay (AID 2327).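 Also: NIH-3T3 mouse fibroblasts cultured with fluconazole at 8 µg/mL.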 The class given is functional. In general terms: The colour change of resazurin is a common sign of viable cells or microbes.
Test [6] can be described thus: off-target signal loss in HeLa-CEM21 co-culture – HeLa F-luc CTL cells, cherry-picked, counter-screen for HIV-1 Env fusion inhibitor project, dose response (AID 652040).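 Also: potency for signal decrease marking cytotoxic or nonspecific inhibition.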 The class given is functional, cell-based.
The next test deals with T3, Cytochrome P450 1A2 (Homo sapiens, UniProt P05177).
T3 sequence (P05177 whole entry): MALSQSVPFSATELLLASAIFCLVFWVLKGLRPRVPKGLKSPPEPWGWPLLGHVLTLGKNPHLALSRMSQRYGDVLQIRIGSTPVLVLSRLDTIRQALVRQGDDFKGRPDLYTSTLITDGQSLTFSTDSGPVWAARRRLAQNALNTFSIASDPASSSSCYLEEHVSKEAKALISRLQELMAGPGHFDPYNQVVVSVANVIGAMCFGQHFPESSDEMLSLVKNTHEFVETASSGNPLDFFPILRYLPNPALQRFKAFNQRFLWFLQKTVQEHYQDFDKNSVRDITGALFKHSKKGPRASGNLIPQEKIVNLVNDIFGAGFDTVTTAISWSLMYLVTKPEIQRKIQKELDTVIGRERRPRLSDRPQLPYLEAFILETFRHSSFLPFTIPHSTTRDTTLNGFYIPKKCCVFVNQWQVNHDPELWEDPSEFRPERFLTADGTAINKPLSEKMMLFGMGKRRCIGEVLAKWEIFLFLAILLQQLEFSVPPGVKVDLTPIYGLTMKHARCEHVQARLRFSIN

A short description of test [7]: inhibitors of clade B AD8 Env fusion, dose response, cell-based, cherry-pick (AID 652062).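 Also: luciferase signal from cell-cell fusion driven by HIV-1 clade B AD8 Env; potency is for inhibitors of fusion seen as a drop in luminescence.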 The class given is functional.
A short description of test [8]: inhibitors of HIV Env-driven cell fusion, dose response, cherry-pick (AID 652057). The class given is functional, cell-based.
A short description of test [9]: ZM109 Env clade C HIV-1 fusion inhibitors, dose response, HeLa effector, CEM target cells, luciferase, cherry-pick (AID 652058). Format: functional, cell-based.
For test [10], the target named is T4, Zinc finger protein mex-5 (Caenorhabditis elegans, UniProt Q9XUB2).
T4 sequence (Q9XUB2 whole entry): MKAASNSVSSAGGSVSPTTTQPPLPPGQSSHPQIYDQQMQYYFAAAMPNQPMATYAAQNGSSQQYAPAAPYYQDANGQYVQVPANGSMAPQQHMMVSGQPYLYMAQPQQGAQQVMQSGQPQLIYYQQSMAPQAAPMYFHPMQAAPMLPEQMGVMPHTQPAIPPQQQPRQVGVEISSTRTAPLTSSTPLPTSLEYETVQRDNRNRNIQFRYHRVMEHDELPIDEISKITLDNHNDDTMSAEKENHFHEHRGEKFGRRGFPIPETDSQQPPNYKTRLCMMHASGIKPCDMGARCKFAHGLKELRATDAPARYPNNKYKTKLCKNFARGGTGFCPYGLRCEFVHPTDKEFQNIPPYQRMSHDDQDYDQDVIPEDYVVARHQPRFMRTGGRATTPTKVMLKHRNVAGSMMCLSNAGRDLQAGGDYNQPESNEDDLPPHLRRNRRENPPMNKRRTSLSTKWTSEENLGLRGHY
Description: MEX-5/TCR-2 RNA interaction inhibitors, dose response, biochemical, C. elegans, fluorescence polarization (AID 1960).

Test [11] concerns the target T5, RNA-binding protein pos-1 (Caenorhabditis elegans, UniProt G5EF15).
T5 sequence (G5EF15 whole entry): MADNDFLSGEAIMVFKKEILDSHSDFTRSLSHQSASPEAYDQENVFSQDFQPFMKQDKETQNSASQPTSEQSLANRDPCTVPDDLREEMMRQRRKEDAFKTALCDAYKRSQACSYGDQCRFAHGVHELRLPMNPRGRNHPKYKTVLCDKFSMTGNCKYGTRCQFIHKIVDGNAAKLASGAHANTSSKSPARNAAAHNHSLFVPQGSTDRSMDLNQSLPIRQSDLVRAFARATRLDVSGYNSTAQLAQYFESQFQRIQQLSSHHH
Description: inhibitors of POS-1/mex-3 RNA binding, dose response, biochemical, fluorescence polarization (AID 1964).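 Also: purified POS-1 fused to maltose binding protein made in E. coli; potency of compounds blocking POS-1 binding to fluorescent RNA.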 A general note: Polarisation of emitted light reports the rotation of a fluorescent probe.

The next test has as its system HEK293. Description: inhibitors of LMP1-driven NF-kB reporter, dose response, cell-based, HEK293, luciferase, cherry-pick (AID 588343). Format: functional. The settings on record: Homo sapiens.
Test [12] deals with T6, Replicative DNA helicase DnaB (Mycobacterium tuberculosis, UniProt P9WMR3).
T6 sequence (P9WMR3 whole entry): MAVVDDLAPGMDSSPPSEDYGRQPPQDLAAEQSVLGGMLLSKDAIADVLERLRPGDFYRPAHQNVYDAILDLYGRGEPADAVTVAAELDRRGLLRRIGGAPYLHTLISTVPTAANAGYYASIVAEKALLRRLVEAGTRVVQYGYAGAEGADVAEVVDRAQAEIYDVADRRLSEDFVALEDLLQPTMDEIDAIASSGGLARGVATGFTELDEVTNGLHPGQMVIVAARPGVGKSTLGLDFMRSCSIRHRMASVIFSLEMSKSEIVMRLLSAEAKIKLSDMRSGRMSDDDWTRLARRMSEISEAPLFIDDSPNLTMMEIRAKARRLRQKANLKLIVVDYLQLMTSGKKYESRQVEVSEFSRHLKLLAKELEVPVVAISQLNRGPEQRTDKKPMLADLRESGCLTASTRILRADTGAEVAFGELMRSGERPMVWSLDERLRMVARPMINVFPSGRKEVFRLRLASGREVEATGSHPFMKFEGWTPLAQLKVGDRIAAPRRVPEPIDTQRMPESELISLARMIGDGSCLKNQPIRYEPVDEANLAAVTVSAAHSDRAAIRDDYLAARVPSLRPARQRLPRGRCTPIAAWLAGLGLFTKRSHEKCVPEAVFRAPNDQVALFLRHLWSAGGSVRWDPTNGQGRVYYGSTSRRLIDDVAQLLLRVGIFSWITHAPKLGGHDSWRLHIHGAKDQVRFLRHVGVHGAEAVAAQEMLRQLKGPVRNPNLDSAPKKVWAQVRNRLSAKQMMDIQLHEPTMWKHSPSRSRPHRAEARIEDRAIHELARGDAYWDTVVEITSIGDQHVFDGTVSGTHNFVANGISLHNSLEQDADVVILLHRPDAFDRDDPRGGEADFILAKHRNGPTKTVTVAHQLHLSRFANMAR
Description: DnaB intein splicing inhibitors, dose response, biochemical, cell-free fluorescence (AID 449749). The class given is functional.

In another test the target is T7, Protein RecA (Mycobacterium tuberculosis, UniProt P9WHJ3).
T7 sequence (P9WHJ3 whole entry): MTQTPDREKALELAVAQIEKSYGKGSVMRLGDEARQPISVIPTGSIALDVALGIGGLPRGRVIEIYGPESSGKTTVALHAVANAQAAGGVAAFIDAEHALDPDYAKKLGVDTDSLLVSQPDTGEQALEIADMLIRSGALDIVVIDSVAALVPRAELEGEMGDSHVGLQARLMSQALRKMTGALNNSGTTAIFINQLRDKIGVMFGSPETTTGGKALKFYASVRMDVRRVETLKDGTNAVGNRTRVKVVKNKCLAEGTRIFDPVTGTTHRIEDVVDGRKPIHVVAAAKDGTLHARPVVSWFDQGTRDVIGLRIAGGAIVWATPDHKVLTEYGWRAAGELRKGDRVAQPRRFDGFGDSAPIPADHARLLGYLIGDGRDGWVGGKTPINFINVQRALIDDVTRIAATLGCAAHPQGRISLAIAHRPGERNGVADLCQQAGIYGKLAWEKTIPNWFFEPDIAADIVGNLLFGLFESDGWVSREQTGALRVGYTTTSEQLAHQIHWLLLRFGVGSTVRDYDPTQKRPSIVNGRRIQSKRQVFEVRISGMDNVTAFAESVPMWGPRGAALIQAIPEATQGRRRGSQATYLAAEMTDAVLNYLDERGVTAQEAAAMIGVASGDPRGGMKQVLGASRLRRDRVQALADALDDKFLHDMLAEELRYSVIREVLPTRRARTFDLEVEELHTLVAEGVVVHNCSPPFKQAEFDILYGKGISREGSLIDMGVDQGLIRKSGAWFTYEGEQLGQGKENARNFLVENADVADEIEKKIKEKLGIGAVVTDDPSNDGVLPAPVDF
Description: Fluorescence Cell-Free Homogeneous Dose Retest to Identify Inhibitors of RecA-Intein Splicing Activity. [Related pubchem assays (depositor defined):AID2097, AID2223, AID489010, AID492950]. Format: functional.

The source made the active and inactive calls.

Take `CSc1nnc(N2C(=O)C(O)=C(C(=O)c3ccc(C)o3)C2c2ccc(C)cc2)s1` (stereo not given): the EC50 was 9.87 µM (active) in test [1] and > 99 µM (inactive) in [2].

For `NNS(=O)(=O)c1ccc(Sc2ccccn2)c([N+](=O)[O-])c1`, the EC50 in [1] is 52.6 µM (inactive); in [2] it was > 99 µM (inactive).

`Cc1ccc(O)c(C2=NNC(c3ccc(Cl)cc3)C2)c1` (stereo not given): the EC50 was 9.12 µM (active) in the test on Streptococcus; 4.36 µM (active) in test [3]; > 150 µM (not active) at Streptokinase A; 3.23 µM (active) in [4]; > 160 µM (inactive) in [5].

With `O=C(NC1CCCCC1)C(c1cccs1)N(Cc1cccs1)C(=O)c1ccco1` (stereo not given), the AC50 was 48.2 µM (active) in test [6]; 20 µM (inconclusive) on Cytochrome P450 1A2; 1.55 µM (active) in [7]; 6.72 µM (active) in [8]; 5.68 µM (active) in test [9].

As to `Cc1ccc(-c2cc(-c3ccccc3)nc(N)c2C#N)o1`, the EC50 in [1] is > 99 µM (inactive); in test [2], 44.6 µM (inactive).

For `CC1CC(=O)C2=C(C1)OC(N)=C(C#N)C2c1coc2ccccc2c1=O` (stereo not given), the EC50 in test [1] and in [2] was > 99 µM (inactive) in each case.

For `COc1ccc2c(c1)S/C(=C\C(=O)c1ccncc1)N2C`, the EC50 in [10] is > 300 µM (not active); in test [1], > 99 µM (inactive); in test [11] it was > 300 µM (not active); in test [2], > 99 µM (inactive).

`CCN(Cc1nc(O)c2ccc(Cl)cc2n1)C(=O)c1cc(C2CC2)nn1-c1ccccc1`: the AC50 in test [6] was 6.32 µM (active); in [7], 4.62 µM (active); in test [8] it was 2.67 µM (active); in test [9], 5.14 µM (active).

For the compound `O=C(c1ccc(Cl)cc1)N1CCN(CCOc2ccccc2)CC1`, the AC50 with HEK293 is > 350 µM (inactive).

For the compound `Cc1nc(SCC(=O)Nc2cc(C)on2)c2c3c(sc2n1)CCCC3`, the EC50 in test [1] and in [2] was > 99 µM (inactive) each time.

Take `COc1cc(/C=C2/SC(=S)N(Cc3ccccc3)C2=O)ccc1OCC(=O)O`: the results for the AC50 (in the test with HEK293; in [12]) were 45.2 µM (active) and 4.22 µM (active), respectively. The EC50 on Protein RecA is 6.85 µM (active).

For the compound `O=C(Nc1ccccc1)c1nn(-c2ccccc2)c(=O)cc1C(F)(F)F`, the EC50 was > 300 µM (not active) in test [10], > 99 µM (inactive) in [1], > 300 µM (not active) in [11] and > 99 µM (inactive) in test [2].

For `C[C@H]1CN([C@@H](C)CO)S(=O)(=O)c2ccc(Br)cc2O[C@H]1CN(C)Cc1ccc(F)cc1`, the results for the AC50 in [7], in test [8] and in test [9] were 30.9 µM (active), 3.67 µM (active) and 5.86 µM (active), respectively.

For the compound `COc1ccc(-c2c(C)nn3c(C(F)(F)F)cc(C)nc23)cc1`, in [6], the AC50 was 17.8 µM (active).
